Here are results for four compounds from article PMC6921279 (Frontiers in Endocrinology, 2019).

Experiment [1] deals with MEK1/2-mediated phosphorylation of ERK1/2. Further details: method as in PMID 16484629, PMID 10098484, PMID 14670995, PMID 11117536, PMID 12970163. The note with it: CRF1R and CRF2R signaling, various cell lines; cited from earlier work.
The test system of experiment [2] is CRF1R-mediated ERK1/2 phosphorylation. In words: Modulation of CRF-stimulated ERK1/2 phosphorylation in COS-7 cells expressing HA-CRF1R. It is filed as cell-based. Particulars: 100 nM CRF, 5 min. As to the method: (§1) Plasmid pRK5 encoding the carboxyl terminus of βARK that contains its βγ-binding domain (ct-βARK) was kindly provided by Dr. W. Koch (Center for Translational Medicine, Temple University, Philadelphia, PA), which is a scavenger for G protein βγ subunits ([25]). […] Plasmid pUSEamp encoding dominant-negative Akt-K179M (dn-Akt) was from Upstate Biotechnology (Lake Placid, NY).
(§2) COS-7 cells (from the American Type Culture Collection) were cultured at 37°C in a humidified atmosphere of 95% air, 5% CO2, in DMEM supplemented with 10% FBS, 100 μg/ml streptomycin, and 100 units/ml penicillin (COS-7 growth medium). Transient transfections were performed using LipofectAMINE (Life Technologies: Gaithersburg, MD) as described previously ([27]). Cells were seeded at 8 × 10^5 cells/10-cm dish in COS-7 medium and cultured for 3 days before transfection. COS-7 cells were transfected in 5 ml/dish OptiMEM containing 10 μg/ml LipofectAMINE with empty vector, pcDNA3 encoding the HA-CRF1R or the HA-CRF1R-Δ386 mutant. […] After replacing the transfection medium with fresh growth medium, transfected COS-7 cells were cultured for 1 day. Subsequently, cells were re-seeded in 6-well plates and cultured for an additional day prior to the experiment.
(§3) The protocols for measuring total and phosphorylated ERK1/2, c-Src, PYK2, Akt, and EGFR have been previously published ([28], [29]). After cells were cultured to 60–70% confluence, they were serum-deprived for 24 h. On the day of the experiment, cells were treated with the indicated ligands and inhibitors. […] After treatment, cells were placed on ice, the media was aspirated, and the cells were washed twice with ice-cold PBS and lysed in 100 μl of Laemmli sample buffer 1X. The lysates were briefly sonicated, heated at 95°C for 5 min, and centrifuged for 5 min at 14,000 rpm. Resulting supernatants were loaded in separate lanes of a 10% SDS-PAGE gels and electrophoresed. Next, Western transfer on to PDVF membranes was completed. The Western blots were then probed with specific antibodies targeting phosphorylated and non-phosphorylated forms of ERK1/2, c-Src, PYK2, Akt, and EGFR for primary immunodetection. After blots were probed with horseradish peroxidase-conjugated secondary antibody, protein bands were visualized with enhanced chemiluminescence ECL reagent (Amersham Pharmacia Biotech, Piscataway, NJ or Pierce Biotechnology, Rockford, IL) and scanned using the GS-800 Calibrated Imaging Densitometer (Bio-Rad). The labeled bands were quantified using the Quantity One 4.6.3 software program (Bio-Rad).
Total cell lysates were separated by SDS-PAGE and analyzed by immunoblotting with anti-p-ERK1/2 Thr^202/Tyr^204, as described in Materials and Methods. ERK1/2 phosphorylation was quantitated by densitometry, and mean values were plotted from five independent experiments.
Total cell lysates were separated by SDS-PAGE and analyzed by immunoblotting with anti-p-ERK1/2 Thr^202/Tyr^204 (A–D) or anti-p-EGFR Tyr^1068 (E), as described in Materials and Methods. ERK1/2 and EGFR phosphorylation were quantitated by densitometry, and mean values were plotted from three to five independent experiments.
Total cell lysates were separated by SDS-PAGE and analyzed by immunoblotting with anti-p-ERK1/2 Thr^202/Tyr^204, as described in Materials and Methods. ERK1/2 phosphorylation was quantitated by densitometry, and mean values were plotted from three to five independent experiments.

Experiment [3] deals with EGFR Tyr845. Nature of the experiment: CRF-induced EGFR phosphorylation at Tyr845 in COS-7 cells expressing HA-CRF1R. It is filed as cell-based. The note with it: 10 μM PP2, 30 min pretreatment; 100 nM CRF, 5 min. As to the method: (§4) COS-7 cells (from the American Type Culture Collection) were cultured at 37°C in a humidified atmosphere of 95% air, 5% CO2, in DMEM supplemented with 10% FBS, 100 μg/ml streptomycin, and 100 units/ml penicillin (COS-7 growth medium). Transient transfections were performed using LipofectAMINE (Life Technologies: Gaithersburg, MD) as described previously ([27]). Cells were seeded at 8 × 10^5 cells/10-cm dish in COS-7 medium and cultured for 3 days before transfection. COS-7 cells were transfected in 5 ml/dish OptiMEM containing 10 μg/ml LipofectAMINE with empty vector, pcDNA3 encoding the HA-CRF1R or the HA-CRF1R-Δ386 mutant. […]
(§5) The protocols for measuring total and phosphorylated ERK1/2, c-Src, PYK2, Akt, and EGFR have been previously published ([28], [29]). […] The labeled bands were quantified using the Quantity One 4.6.3 software program (Bio-Rad).
(§6) Figure 6 CRF mediates EGFR phosphorylation at Tyr^845 and activation of PYK2. […] Total cell lysates were separated by SDS-PAGE and analyzed by immunoblotting with anti-p-EGFR Tyr^845 (A,B) or anti-p-PYK2 Tyr^402 (E), as described in Materials and Methods. EGFR and ERK1/2 phosphorylation were quantitated by densitometry, and mean values were plotted from three to five independent experiments. […] Src and EGFR were quantitated by densitometry, and mean values were plotted from three independent experiments. […]

Experiment [4] concerns PYK2. In words: CRF-induced PYK2 phosphorylation at Tyr402 in COS-7 cells expressing HA-CRF1R. It is filed as cell-based. Particulars: PP2 (discussion). As to the method: as §4, §5, §6
The test system of experiment [5] is CRF1R-mediated Akt phosphorylation. Nature of the experiment: CRF-induced Akt phosphorylation at Ser473 in COS-7 cells expressing HA-CRF1R. It is filed as cell-based, human. Particulars: PP2 10 μM, 30 min pretreatment; 100 nM CRF, 5 min. As to the method:
as §1, §2
as §3, with “After blots were probed with horseradish peroxidase-conjugated secondary antibody, protein bands were visualized with enhanced chemiluminescence ECL reagent (Amersham Pharmacia Biotech, Piscataway, NJ or Pierce Biotechnology, Rockford, IL) and scanned using the GS-800 Calibrated Imaging Densitometer (Bio-Rad).” left out
Figure 7 CRF mediates Akt activation. […] Total cell lysates were separated by SDS-PAGE and analyzed by immunoblotting with anti-p-Akt Ser^473, as described in Materials and Methods. Akt phosphorylation was quantitated by densitometry, and mean values were plotted from three to five independent experiments. […]

Experiment [6] concerns Src. Nature of the experiment: CRF-induced Src phosphorylation at Tyr416 in COS-7 cells expressing HA-CRF1R. Format: cell-based. Particulars: 10 μM PP2, 30 min pretreatment; 100 nM CRF, 5 min. The method, then: COS-7 cells (from the American Type Culture Collection) were cultured at 37°C in a humidified atmosphere of 95% air, 5% CO2, in DMEM supplemented with 10% FBS, 100 μg/ml streptomycin, and 100 units/ml penicillin (COS-7 growth medium). Transient transfections were performed using LipofectAMINE (Life Technologies: Gaithersburg, MD) as described previously ([27]). Cells were seeded at 8 × 10^5 cells/10-cm dish in COS-7 medium and cultured for 3 days before transfection. COS-7 cells were transfected in 5 ml/dish OptiMEM containing 10 μg/ml LipofectAMINE with empty vector, pcDNA3 encoding the HA-CRF1R or the HA-CRF1R-Δ386 mutant. […] After replacing the transfection medium with fresh growth medium, transfected COS-7 cells were cultured for 1 day. […]
as §5
Figure 5 Role of Src tyrosine kinase in CRF-stimulated ERK1/2 phosphorylation. […] Total cell lysates were separated by SDS-PAGE and analyzed by immunoblotting with anti-p-Src Tyr^416 (A,B) or anti-p-ERK1/2 Thr^202/Tyr^204 (C–E), as described in Materials and Methods. Src, PYK2, and ERK1/2 phosphorylation were quantitated by densitometry, and mean values were plotted from three to five independent experiments. […]

The subject of experiment [7] is β2-adrenergic receptor. Also on record: method as in PMID 15489914, PMID 11278940. Particulars: A431 cells; cited from earlier work. An excerpt:
Moreover, there is evidence that Tyr phosphorylation of GPCRs plays a role in mediating GPCR-Src interactions ([43]). […] This residue lies within a canonical Src SH2 binding domain, and it is proposed that Src directly binds the Tyr-phosphorylated β2-AR.

In experiment [8] the test system is rat cardiomyocytes. Also on record: method as in PMID 12970163. The note with it: CRF2R activation by Ucn2 and Ucn3; cited from earlier work.

Regarding `COc1cccc(-c2cc(=O)c3ccccc3o2)c1N` [PD98059], the “effect on ERK1/2 activation” value in experiment [1] is “inhibiting ERK1/2 activation”.
For `CC(C)(C)n1nc(-c2ccc(Cl)cc2)c2c(N)ncnc21` [PP2], the “effect on CRF-stimulated ERK1/2 phosphorylation” value in experiment [2] (10 μM PP2, 30 min pretreatment) is given as “abolished CRF-stimulated ERK1/2 phosphorylation”. The IC50 in experiment [2] (PP2 0–20 μM, 30 min pretreatment, read-out: IC50, inhibition of CRF-stimulated ERK1/2 phosphorylation) came to 2000 nM. Further, the “effect on CRF-induced EGFR Tyr845 phosphorylation” value in experiment [3] is recorded as “blocked”. Besides, the “effect on CRF-stimulated activation of Src, PYK2, the EGFR, and ERK1/2” value in experiment [4] is “markedly reduced or abolished the CRF-stimulated activation of Src, PYK2, the EGFR, and ERK1/2”. The “effect on CRF-induced Akt activation” value in experiment [5] is listed as “completely inhibited”. Moreover, the “effect on CRF-induced Src phosphorylation” value in experiment [6] is listed as “CRF-induced Src phosphorylation was prevented”.
In the case of `CC(C)NCC(O)c1ccc(O)c(O)c1` (stereo not drawn) [isoproterenol], the “phosphorylation of β2-AR” value in experiment [7] is “results in phosphorylation of the receptor on Tyr^305”.
`CCCC[C@@H](C)/C=C(C)/C=C(\C)C(=O)NC1=C[C@@](O)(/C=C/C=C/C=C/C(=O)NC2=C(O)CCC2=O)[C@@H]2O[C@@H]2C1=O` [manumycin A]: the “effect on ERK1/2 phosphorylation” value in experiment [8] is listed as “abolish ERK1/2 phosphorylation”.
